Earlier results in patent US20130230587A1, “SUSTAINED RELEASE COMPOSITIONS” (Rubicon Research Private Limited, priority 2010, published 2013).

## COc1ccc2c(c1)[C@]13CCCC[C@@H]1[C@H](C2)N(C)CC3 [Dextromethorphan]
Absorbed from the gastrointestinal tract
  Time to peak plasma concentrations: approximately 2.5 hours
In vivo
  Plasma elimination half-life: 1.2 to 3.9 h
